Source: patent publication US8173682B2, “Substituted pyridones as inhibitors of poly(ADP-ribose) polymerase (PARP)” (Aventis Pharmaceuticals Inc., priority 2004, dated 2012)
Where a name gives a salt, the structure may show the parent alone.

Each compound was assayed against T1, recombinant human PARP (PARP1) (Homo sapiens, UniProt P09874) (assay: PARP enzyme assay, Method A (radioactivity or 'ELISA' enzyme assay with partially purified enzyme)). Settings: recombinant human PARP preparation, radioactive or ELISA enzyme assay.
T1 construct: Full length human PARP (PARP1) is assembled from PCR fragments; His6 tag with TEV site, from the pFastBac-HTb vector (own knowledge of the vector); made in house; host or cells: insect cells, baculovirus (Bac-to-Bac, Gibco-BRL)
T1 sequence (P09874 whole entry, the tested form may be a part): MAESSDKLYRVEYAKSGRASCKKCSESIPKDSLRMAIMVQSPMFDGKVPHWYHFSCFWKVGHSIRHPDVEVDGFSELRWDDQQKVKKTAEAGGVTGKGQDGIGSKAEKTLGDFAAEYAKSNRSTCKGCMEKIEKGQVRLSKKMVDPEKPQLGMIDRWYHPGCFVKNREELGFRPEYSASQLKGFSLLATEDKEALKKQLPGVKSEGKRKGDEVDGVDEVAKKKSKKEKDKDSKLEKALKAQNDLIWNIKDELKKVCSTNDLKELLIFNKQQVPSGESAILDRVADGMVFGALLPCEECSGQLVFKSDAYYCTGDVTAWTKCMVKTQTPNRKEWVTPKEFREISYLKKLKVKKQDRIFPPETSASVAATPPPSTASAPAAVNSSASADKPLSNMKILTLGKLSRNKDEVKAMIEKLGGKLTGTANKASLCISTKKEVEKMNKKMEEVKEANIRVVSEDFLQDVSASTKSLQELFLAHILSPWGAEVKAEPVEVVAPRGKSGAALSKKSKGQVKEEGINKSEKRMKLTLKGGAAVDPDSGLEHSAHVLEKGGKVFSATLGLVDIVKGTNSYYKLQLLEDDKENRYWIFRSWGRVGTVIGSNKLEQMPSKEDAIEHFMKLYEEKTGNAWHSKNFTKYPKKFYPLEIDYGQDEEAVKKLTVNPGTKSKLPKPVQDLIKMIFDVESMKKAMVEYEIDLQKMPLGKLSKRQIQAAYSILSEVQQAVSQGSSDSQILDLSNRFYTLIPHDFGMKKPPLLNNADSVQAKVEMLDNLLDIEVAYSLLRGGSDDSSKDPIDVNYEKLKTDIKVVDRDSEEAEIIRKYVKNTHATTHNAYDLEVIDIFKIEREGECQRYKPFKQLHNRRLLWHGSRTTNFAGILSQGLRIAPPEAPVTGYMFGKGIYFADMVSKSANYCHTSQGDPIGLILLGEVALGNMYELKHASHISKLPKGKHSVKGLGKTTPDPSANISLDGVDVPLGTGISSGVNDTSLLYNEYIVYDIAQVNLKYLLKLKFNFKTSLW
Type: biochemical
Method in brief: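 Partially purified recombinant full-length His-tagged human PARP1, baculovirus-expressed. Radioactive format: 100 μg/mL sonicated DNA, 100 μg/mL histones, 100 mM Tris pH 8.0, 10 mM MgCl2, 200 μM labeled NAD, 10 min 37 °C or 60 min RT, TCA-precipitated counts. ELISA format: 250 μM NAD plus biotin-NAD on histone plates, TMB A450.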

Point of comparison: `CCc1cc(-c2ccc(CNCc3cccnc3)s2)c(C)[nH]c1=O` [Example 162, 3-Ethyl-6-methyl-5-{5-{[(pyridin-3-ylmethyl)amino]methyl}thiophen-2-yl)-1H-pyridin-2-one dihydrochloride], IC50 0.52 µM. Against it:
- CCc1cc(-c2ccc(S(=O)(=O)N3CCN(c4ccncc4)CC3)o2)c(C)[nH]c1=O [Example 45, 3-Ethyl-6-methyl-5-{5-[(4-pyridin-4-yl)piperazine-1-sulfonyl]furan-2-yl}-1H-pyridin-2-one hydrochloride] — 2.4-fold lower, 0.22 µM
- CCc1cc(-c2ccc(S(=O)(=O)NCCN3CCOCC3)s2)c(C)[nH]c1=O [Example 38, 5-(5-Ethyl-2-methyl-6-oxo-1,6-dihydropyridin-3-yl)thiophene-2-sulfonic acid (2-morpholin-4-yl)ethylamide hydrochloride] — within 1.5-fold, 0.77 µM
- CCc1cc(-c2ccc(CN3CCC(O)CC3)s2)c(C)[nH]c1=O [Example 127, 3-Ethyl-5-[5-(4-hydroxy-piperidin-1-ylmethyl)-thiophen-2-yl]-6-methyl-1H-pyridin-2-one hydrochloride] — within 1.5-fold, 0.67 µM
- CCc1cc(-c2n[nH]c(C)n2)c(C)[nH]c1=O [Example 21, 3-Ethyl-6-methyl-5-(5-methyl-2H-1,2,4-triazol-3-yl)-1H-pyridin-2-one] — 3.1-fold lower, 0.17 µM
- CCc1cc(-c2ncnn2C)c(C)[nH]c1=O [Example 17, 3-Ethyl-6-methyl-5-(2-methyl-2H-1,2,4-triazol-3-yl)-1H-pyridin-2-one] — 3.3-fold higher, 1.7 µM
- CCc1cc(-c2ccc(CNC3CCN(Cc4ccccc4)C3)s2)c(C)[nH]c1=O (stereo not shown) [Example 159, 5-{5-[(1-Benzyl-pyrrolidin-3-ylamino)-methyl]-thiophen-2-yl}-3-ethyl-6-methyl-1H-pyridin-2-one dihydrochloride] — within 1.5-fold, 0.72 µM
- CCc1cc(-c2ccc(S(=O)(=O)NCCOC)s2)c(C)[nH]c1=O [Example 33, 5-(5-Ethyl-2-methyl-6-oxo-1,6-dihydropyridin-3-yl)thiophene-2-sulfonic acid (2-methoxyethyl)amide] — 20-fold higher, 10.5 µM
- CCc1cc(-c2ccc(CN)s2)c(C)[nH]c1=O [Example 175, 5-(5-Aminomethylthiophen-2-yl)-3-ethyl-6-methyl-1H-pyridin-2-one hydrochloride] — 3.5-fold lower, 0.15 µM
- CCc1cc(-c2ccc(CN[C@H]3CC[C@H](O)CC3)s2)c(C)[nH]c1=O [Example 125, 3-Ethyl-5-{5-[(4-hydroxycyclohexylamino)methyl]thiophen-2-yl]-6-methyl-1H-pyridin-2-one hydrochloride] — within 1.5-fold, 0.45 µM
- CCc1cc(-c2ccc(S(=O)(=O)NCc3nccn3C)s2)c(C)[nH]c1=O [Example 80, 5-[5-Ethyl-2-methyl-6-oxo-1,6-dihydropyridin-3-yl]thiophene-2-sulfonic acid (1-methylimidazol-2-yl)methyl]amide hydrochloride] — within 1.5-fold, 0.43 µM
- CCc1cc(-c2ccc(CNCc3cccs3)s2)c(C)[nH]c1=O [Example 170, 3-Ethyl-6-methyl-5-(5-{[(thiophen-2-ylmethyl)amino]methyl}-thiophen-2-yl)-1H-pyridin-2-one hydrochloride] — 1.9-fold lower, 0.28 µM
- CCc1cc(-c2nc[nH]n2)c(C)[nH]c1=O [Example 16, 3-Ethyl-6-methyl-5-(2H-1,2,4-triazol-3-yl)-1H-pyridin-2-one] — within 1.5-fold, 0.35 µM
- CCc1cc(-c2ccc(S(=O)(=O)N3CCC[C@H]3CNc3ccccc3)s2)c(C)[nH]c1=O [Example 105, 3-Ethyl-6-methyl-5-[5-((S)-2-phenylaminomethylpyrrolidine-1-sulfonyl)-thiophen-2-yl]-1H-pyridin-2-one hydrochloride] — 6-fold higher, 3.1 µM
- CCOC(=O)N1CCN(S(=O)(=O)c2ccc(-c3cc(CC)c(=O)[nH]c3C)s2)CC1 [Example 89, 4-[5-(5-Ethyl-2-methyl-6-oxo-1,6-dihydropyridin-3-yl)thiophene-2-sulfonyl]piperazine-1-carboxylic acid ethyl ester] — 21-fold higher, 10.8 µM
- CCc1cc(-c2ccc(S(=O)(=O)N3CCN(CCN(C)C)CC3)s2)c(C)[nH]c1=O [Example 64, 5-{5-[4-(2-Dimethylaminoethyl)piperazine-1-sulfonyl]thiophen-2-yl}-3-ethyl-6-methyl-1H-pyridn-2-one dihydrochloride] — 2.9-fold higher, 1.5 µM
- CCc1cc(-c2ccc(S(=O)(=O)N(C)Cc3ccco3)s2)c(C)[nH]c1=O [Example 106, 5-(5-Ethyl-2-methyl-6-oxo-1,6-dihydro-pyridin-3-yl)thiophene-2-sulfonic acid furan-2-yl-methyl-methylamide] — within 1.5-fold, 0.43 µM
- CCc1cc(-c2ccc(CN3CCC(=O)CC3)s2)c(C)[nH]c1=O [Example 150, 3-Ethyl-6-methyl-5-[5-(4-oxo-piperidin-1-ylmethy)-thiophen-2-yl]-1H-pyridin-2-one hydrochloride] — 2.5-fold higher, 1.3 µM
- CCc1cc(-c2ccc(CN3CCCC3)s2)c(C)[nH]c1=O [Example 171, 3-Ethyl-6-methyl-5-(5-pyrrolidin-1-ylmethylthiophen-2-yl)-1H-pyridin-2-one hydrochloride] — within 1.5-fold, 0.48 µM
- CCc1cc(-c2ccc(S(=O)(=O)NCCOc3ccccc3)s2)c(C)[nH]c1=O [Example 98, 5-(5-Ethyl-2-methyl-6-oxo-1,6-dihydropyridin-3-yl)-thiophene-2-sulfonic acid (2-phenoxyethyl)amide] — within 1.5-fold, 0.41 µM
- CCc1cc(-c2ccc(CN3CCC(F)(F)C3)s2)c(C)[nH]c1=O [Example 172, 5-{5-[(3,3-Difluoropyrrolidin-1-ylmethyl)(thiophen-2-yl)-3-ethyl-6-methyl-1H-pyridin-2-one hydrochloride] — 1.9-fold higher, 1 µM
- CCc1cc(-c2ccc(CNCc3ccccc3F)s2)c(C)[nH]c1=O [Example 192, 3-Ethyl-5-{5-[(2-fluoro-benzylamino)-methyl]-thiophen-2-yl}-6-methyl-1H-pyridin-2-one hydrochloride] — 2-fold lower, 0.26 µM
- CCc1cc(-c2ccc(S(N)(=O)=O)s2)c(C)[nH]c1=O [Example 111, 5-(5-ethyl-2-methyl-6-oxo-1,6-dihydro-pyridin-3-yl)-thiophene-2-sulfonic acid amide] — 2.5-fold lower, 0.21 µM
- CCc1cc(-c2nc(C)no2)c(C)[nH]c1=O [Example 19, 3-Ethyl-6-methyl-5-(3-methyl-1,2,4-oxadiazol-5-yl)-1H-pyridin-2-one] — 2.3-fold lower, 0.23 µM
- CCc1cc(-c2ccc(S(=O)(=O)N(C)C3CCN(C)CC3)s2)c(C)[nH]c1=O [Example 77, 5-[5-Ethyl-2-methyl-6-oxo-1,6-dihydropyridin-3-yl]thiophene-2-sulfonic acid methyl-(1-methylpiperidin-4-yl]amide hydrochloride] — 1.9-fold lower, 0.28 µM
- CCc1cc(-c2ccc(CNC3CCN(c4nccc(C(F)(F)F)n4)CC3)s2)c(C)[nH]c1=O [Example 139, dihydrochloride] — 5-fold higher, 2.6 µM
- CCc1cc(-c2ccc(S(=O)(=O)NCc3ccco3)s2)c(C)[nH]c1=O [Example 97, 5-(5-Ethyl-2-methyl-6-oxo-1,6-dihydropyridin-3-yl)-thiophene-2-sulfonic acid (furan-2-ylmethyl)amide] — 2.9-fold lower, 0.18 µM
- CCc1cc(-c2ccc(S(=O)(=O)NCCCN3CCN(C)CC3)s2)c(C)[nH]c1=O [Example 65, 5-(5-Ethyl-2-methyl-6-oxo-1,6-dihydropyridin-3-yl)thiophene-2-sulfonic acid 3-(4-methylpiperazin-1-yl)propylamide dihydrochloride] — within 1.5-fold, 0.67 µM
- CCc1cc(-c2nc(C)nn2C)c(C)[nH]c1=O [Example 20, 5-(2,5-Dimethyl-2H-1,2,4-triazol-3-yl)-3-ethyl-6-methyl-1H-pyridin-2-one] — 2.1-fold higher, 1.1 µM
- CCc1cc(-n2nccn2)c(C)[nH]c1=O [Example 12, 3-Ethyl-6-methyl-5-(1,2,3-triazol-2-yl)-1H-pyridin-2-one] — 3.1-fold higher, 1.6 µM
- CCc1cc(-c2ccc(CNC3CCCC3)s2)c(C)[nH]c1=O [Example 189, 5-(5-Cyclopentylaminomethylthiophen-2-yl)-3-ethyl-6-methyl-1H-pyridin-2-one hydrochloride] — within 1.5-fold, 0.41 µM
- 5-(5-Ethyl-2-methyl-6-oxo-1,6-dihydropyridin-3-yl)thiophene-2-sulfonic acid (2-1′-[5-(5-ethyl-2-methyl-6-oxo-1,6-dihydropyridin-3-yl)thiophene-2-sulfonyl]-1H-imidazol-4-yl}ethyl)amide hydrochloride [Example 40] — 4-fold lower, 0.13 µM
- CCc1cc(-c2ccc(S(=O)(=O)NC3CCN(CC4CCCCC4)CC3)s2)c(C)[nH]c1=O [Example 75, 5-(5-Ethyl-2-methyl-6-oxo-1,6-dihydropyridin-3-yl)thiophene-2-sulfonic acid (1-cyclohexylmethylpiperidin-4-yl)amide hydrochloride] — 1.7-fold lower, 0.3 µM
- CCc1cc(-c2ncon2)c(C)[nH]c1=O [Example 23, 3-Ethyl-6-methyl-5-(1,2,4-oxadiazol-3-yl)-1H-pyridin-2-one] — within 1.5-fold, 0.67 µM
- CCc1cc(-c2ccc(CNCc3ccc(OC)cc3)s2)c(C)[nH]c1=O [Example 169, 5-{5-[(4-Methoxybenzylamino)methyl]thiophen-2-y}]-3-ethyl-6-methyl-1H-pyridin-2-one hydrochloride] — within 1.5-fold, 0.6 µM
- CCc1cc(-c2ccc(S(=O)(=O)NCCCCc3cccnc3)s2)c(C)[nH]c1=O [Example 84, 5-[5-Ethyl-2-methyl-6-oxo-1,6-dihydropyridin-3-yl]thiophene-2-sulfonic acid 4-(pyridin-3-ylbutyl)]amide hydrochloride] — 3.1-fold higher, 1.6 µM
- CCc1cc(-c2ccc(CNCCCn3ccnc3)s2)c(C)[nH]c1=O [Example 153, 3-Ethyl-6-methyl-5-{5-[(3-imidazol-1-yl-propylamino)-methyl]thiophen-2-yl)-1H-pyridin-2-one dihydrochloride] — within 1.5-fold, 0.67 µM
